Experimental data from patent publication US12673915B2, “Precursor compound of hexahydro-beta-acid component compound, feed composition and use thereof” (WISORIG TECHNOLOGIES PTE. LIMITED, priority 2020, dated 2026).

Legend:
Format in all cases: physicochemical
[1] = Thermal stability testing at 60° C. of ingredient and 1% premix (HPLC)
Description: (§1) Preparation of a sample of 1% premix of an ingredient: 1 g of an ingredient was respectively weighed out and evenly mixed with 99 g of corncob meal in a mixer to give a sample of 1% premix of an ingredient for testing.
Thermal stability testing at 60° C.: The samples of an ingredient and 1% premix thereof were respectively spread in petri dishes to form thin layers of <5 mm, and kept at 60° C. Two replications for a sample were taken in parallel on day 5 and day 10 for HPLC analysis.
(§2) 25.0 mg of an ingredient was accurately weighed out and dissolved in an appropriate amount of methanol by ultrasonication. The solution was then transferred to a volumetric flask and diluted to 25 mL with methanol to give a stock solution. The samples from the stock solution were diluted with methanol respectively to a concentration of 100 ppm, 500 ppm, and 1000 ppm of work solution, and then the working solutions were filtered by 0.22 μm organic membranes. Between the concentration of a sample and the response value of HPLC peak area thereof, the linearity was adjusted and detected to give a standard curve.
(§3) 2.3: Preparation of Sample Solution 25.0 mg of an ingredient and 2.0000 g of a sample of 1% premix thereof were respectively accurately weighed out, and dissolved in 25 mL of methanol by ultrasonication for 10 minutes. The resulting solutions were filtered by organic membranes and then analyzed by HPLC. 2.4: Testing Conditions for HPLC • Column: Symmetry Cis column (Waters; 250 mm*4.6 mm, 5 μm). • Mobile phase: 0.02% phosphoric acid:methanol=5:95 (v:v). • Wavelength: 235 nm. • Temperature of the Column: 25° C. • Injection volume: 10 μL. • Flow rate: 1 mL/min. 3: Results

[2] = Photostability testing under illumination of 4500 Lx of ingredient and 1% premix (HPLC); conditions: 4500 Lx
Excerpt: as §1
Photostability testing: The samples of an ingredient and 1% premix thereof were respectively spread in petri dishes to form thin layers of <5 mm, and kept under an illumination of 4500 Lx. Three replications for a sample were sampled in parallel on day 5 and day 10 for HPLC analysis.
as §2, §3

[3] = Long-term stability in feeds at room temperature (25° C.±2° C., RH 60%±10%; HPLC)
Excerpt: Feeds: ZUSF's premixed feed (A mixture of crushed Feed A and crushed Feed B at a weight ratio of 2:1, wherein Feed A was a 5.33% multi-premixed feed for piglets from ZUSF's Hao-Ru-Zhen-Jing, and B was a 2.67% multi-premixed feed for piglets from ZUSF's Hao-Ru-Zhen-Jing); creep feed for piglets from CP FEED; INSIGHTER's feed for broiler; 4% premixed feed from GUANGDONG CO-POWER.
Preparation of a sample of 1% premix of Ingredient: 1 g of an ingredient was respectively weighed out and evenly mixed with 99 g of corncob meal in a mixer to give a sample of 1% premix of an ingredient.
Preparation of a sample of 500 ppm feed of an ingredient: The sample of 1% premix of an ingredient was diluted step by step using the ZUSF's remixed feed to 5000 ppm and 500 ppm to give the sample of 500 ppm feed of an ingredient for later testing.
Preparation of a sample of 100 ppm feed of an ingredient: sample of 1% premix of an ingredient was diluted step by step using the creep feed for piglets from CP FEED to 1000 ppm and then 100 ppm to give the sample of 100 ppm feed of an ingredient for later testing.
Preparation of a sample of 100 ppm feed of an ingredient: The sample of 1% premix of an ingredient was diluted step by step using the INSIGHTER's feed for broiler to 1000 ppm and 100 ppm to give the sample of 100 ppm feed of an ingredient for later testing.
Preparation of a sample of 2000 ppm feed of an ingredient: The sample of 1% premix of an ingredient was diluted step by step using the 4% premixed feed from GUANGDONG CO-POWER to 5000 ppm and 2000 ppm to give the sample of 2000 ppm feed of an ingredient for later testing.
Method: Three replications of each feed sample were tested at the condition of 25° C.±2° C. and RH 60%±10%, wherein the replications of each feed sample were sampled in parallel for HPLC analysis on day 5, day 10, day 15, day 30, day 60, and day 90.
25.0 mg of an ingredient was accurately weighed out and dissolved in an appropriate amount of methanol or n-hexane by ultrasonication. The solution was then transferred to a volumetric flask and diluted to 50 mL to give a 500 ppm (by wt.) stock solution. The samples from the stock solution were diluted with methanol or n-hexane respectively to a concentration of 10 ppm, 25 ppm, 50 ppm, 100 ppm, and 250 ppm of work solution, and then the working solutions were filtered by 0.22 μm organic membranes. Between the concentration of a sample and the response value of HPLC peak area thereof, the linearity was adjusted and detected to give a standard curve.
5.0000 g of the samples sampled at different time intervals were respectively accurately weighed out, and dissolved in 25 mL of methanol or n-hexane by ultrasonication for 10 minutes. The resulting solutions were filtered by organic membranes and then analyzed by HPLC.
• Equipment: Waters e2695 with PDA detector. • Mobile phase: 0.02% phosphoric acid:methanol=5:95 (v:v). • Column: Symmetry Cis column (Waters; 250 mm×4.6 mm, 5 μm). • Wavelength: 235 nm. • Temperature of the Column: 25° C. • Injection volume: 10 μL. • Flow rate: 1 mL/min. Normal Phase Chromatography: • Equipment: Shimadzu LC-14C/SPD-15C. • Column: SuperSil NH2 column ([…]; 250 mm×4.6 mm). • Mobile phase: n-hexane:isopropanol=60:40 (v:v). • Wavelength: 235 nm. • Temperature of the Column: 25° C. • Injection volume: 20 μL. • Flow rate: 1 mL/min. 3: Results

[4] = 1% Premix of an ingredient (corncob meal), Day 5
[5] = 1% Premix of an ingredient (corncob meal), Day 10

Residual amount of active ingredient [1, 4]: 98.27% | Residual amount of active ingredient [1, 5]: 97.91% | Residual amount of active ingredient ([1]; Ingredient, Day 5): 99.40% | Residual amount of active ingredient ([1]; Ingredient, Day 10): 99.26% | Residual amount of active ingredient [2, 4]: 98.87% | Residual amount of active ingredient [2, 5]: 98.10% | Residual amount of active ingredient ([2]; Ingredient, Day 5): 98.90% | Residual amount of active ingredient ([2]; Ingredient, Day 10): 98.70% | Residual amount of active ingredient ([3]; 100 ppm in INSIGHTER's broiler feed, Day 5): 99.45% | Residual amount of active ingredient ([3]; 100 ppm in INSIGHTER's broiler feed, Day 15): 99.37% | Residual amount of active ingredient ([3]; 100 ppm in INSIGHTER's broiler feed, Day 30): 99.19% | Residual amount of active ingredient ([3]; 100 ppm in INSIGHTER's broiler feed, Day 60): 99.72% | Residual amount of active ingredient ([3]; 100 ppm in creep feed for piglets from CP FEED, Day 5): 100.54% | Residual amount of active ingredient ([3]; 100 ppm in creep feed for piglets from CP FEED, Day 15): 100.97% | Residual amount of active ingredient ([3]; 100 ppm in creep feed for piglets from CP FEED, Day 30): 97.62% | Residual amount of active ingredient ([3]; 100 ppm in creep feed for piglets from CP FEED, Day 60): 98.08% | Residual amount of active ingredient ([3]; 100 ppm in creep feed for piglets from CP FEED, Day 90): 96.99% | Residual amount of active ingredient ([3]; 500 ppm in ZUSF's premixed feed, Day 5): 98.36% | Residual amount of active ingredient ([3]; 500 ppm in ZUSF's premixed feed, Day 15): 96.77% | Residual amount of active ingredient ([3]; 500 ppm in ZUSF's premixed feed, Day 30): 94.17% | Residual amount of active ingredient ([3]; 500 ppm in ZUSF's premixed feed, Day 60): 95.88% | Residual amount of active ingredient ([3]; 500 ppm in ZUSF's premixed feed, Day 90): 95.73% | Residual amount of active ingredient ([3]; 2000 ppm in 4% premixed feed from GUANGDONG CO-POWER, Day 5): 97.48% | Residual amount of active ingredient ([3]; 2000 ppm in 4% premixed feed from GUANGDONG CO-POWER, Day 15): 96.12% | Residual amount of active ingredient ([3]; 2000 ppm in 4% premixed feed from GUANGDONG CO-POWER, Day 30): 96.28% | Residual amount of active ingredient ([3]; 2000 ppm in 4% premixed feed from GUANGDONG CO-POWER, Day 60): 95.87% | Residual amount of active ingredient ([3]; 2000 ppm in 4% premixed feed from GUANGDONG CO-POWER, Day 90): 95.90%
Compound: CCC(=O)OC1=C(CCC(C)C)C(=O)C(CCC(C)C)(CCC(C)C)C(O)=C1C(=O)C(C)C [hexahydro-colupulone mono-propionate]
